Reference: patent US20240174642A1, “HETEROCYCLIC COMPOUNDS CAPABLE OF ACTIVATING STING” (Boehringer Ingelheim International GmbH, priority 2022, published 2024)

Columns and labels:
dog STING (dSTING) = assay: Dog differential scanning fluorimetry (DSF) assay, thermal shift of dog STING protein; assay type: binding; settings: 100 μM compound, 3 μM recombinant dog STING (residues 149 to 375), 5× SYPRO Orange, 2% DMSO
From the text: The protein used for the biophysical experiments was a recombinant dog STING protein comprising its cytosolic cGAMP binding ectodomain. A codon optimized DNA sequence (for expression in Escherichia coli) encoding amino acid residues 149 to 375 of dog STING was synthesized by GeneArt (Regensburg, Germany) and inserted into a pET17b E. coli expression vector. The protein construct encodes an N-terminal 8× His-tag followed by tobacco etch virus protease (TEV) cleavage site and the above STING gene sequence. The resulting protein sequence for the used dog STING protein (SEQ ID No. 1) is listed below:
For expression of the above recombinant dog STING, the construct was transformed into E. coli BL21 DE3 strain and grown in shake flasks in LB-medium at 15° C. Expression was induced by addition of isopropyl β-D-1-thiogalactopyranoside to a final concentration of 1 mM and cultures shaken overnight. Cell pellets were centrifuged and stored at −70° C. until further use. Protein was purified by cell thawing in lysis buffer (20 mM TRIS-HCl, pH 8, 500 mM NaCl, 1 mM DTT, 0.5 mg/ml lysozyme, Complete Protease Inhibitor (Roche) and DNase (Roche)), followed by metal affinity purification using Ni-NTA resins and elution buffer consisting of 20 mM TRIS-HCl, pH 8, 500 mM NaCl, 1 mM DTT, 300 mM imidazole. Cleavage of the His-Tag using TEV-protease took place during dialysis in size exclusion buffer (20 mM TRIS-HCl, pH 8, 100 mM NaCl, 1 mM DTT) over night. To further purify the target protein a reverse Nickel affinity column was used and the flow through was applied to a size exclusion chromatography. The peak fraction was collected and concentrated to 5 mg/mL.
Dye fluorescence is quenched in aqueous environment and increases upon association of the dye with the hydrophobic parts of the unfolding protein. […] The inflection point of the curve represents the “melting” temperature of the protein (Tm) which is calculated numerically using the Boltzmann equation.
The thermal stability of the dog STING protein was measured in assay buffer containing 20 mM Tris, 150 mM NaCl at pH7.5. The assay uses 384-Well qPCR Plates (Catalog #781358, BRAND), Microseal®‘B’ Adhesive Seals for PCR Plates (Catalog #MSB-1001, BIO-RAD) and was run on a CFX384 Real-Time System (Bio-Rad). A DMSO stock solution of SYPRO orange (SIGMA 55692-500UL) was prepared. Compound stock solutions (10 mM in DMSO) were diluted 1:2 in DMSO to an intermediate compound concentration of 5 mM and then further diluted 1:40 in assay buffer resulting in a compound concentration of 125 μM and 2.5% DMSO. Fluorescent dye stock solution (5000× SYPRO Orange) was then mixed with target protein and buffer to a concentration of 15 μM Protein and 25× SYPRO Orange. 2 μl of this protein-dye-mixture was added to 8 μl compound solution. Final volume was 10 μL. 3-6 well positions were used as negative control (protein with 2% DMSO). The plates were prepared for duplicate measurement and centrifuged for 2 min at 1000 g. In the measurement, 160 cycles of 0.5° C. were used (temperature ramp 15 s/cycle, 15° C. to 95° C.).
Final Assay concentrations for compound characterization were 100 μM compound, 3 μM target protein, 5× SYPRO Orange, and 2% DMSO in 10 μl. All dispensing steps were performed using a HamiltonStar pipetting robot (Hamilton).
Dissociation curves were processed in Bio-Rad CFX Manager. Peak type was set to “negative”. Compound codes for screen were assigned in the plate layout.
Two replicates of TM measurements were averaged, and the standard deviation was calculated. In cases of SD>1.5° C. the measurement was repeated.
The melting point (Tm) obtained for STING protein alone was subtracted from T obtained for protein incubated with ligand to generate ΔTm values.

STING = assay: Dog whole blood (dWB) assay, IFNb secretion by ELISA; assay type: cell-based; settings: Canis lupus familiaris, 4 h incubation at 37° C., % control relative to cGAMP stimulated control, read-out: EC50, cytokine secretion in dog whole blood (dWB) culture system as determined by canine Interferon-beta (IFNb) ELISA
Procedure: In this assay, freshly collected canine blood is incubated with a STING agonist, and interferon beta levels in the supernatant are quantified by ELISA. […] In accordance with the invention, a combination of a high dDSF and low dWB is especially favorable.
For the detection of STING activation in physiological environment dog whole blood (dWB) was stimulated by the cyclic dinucleotide cGAMP or a test compound. Pathway activity was monitored by measuring the IFNb production.
Compounds were delivered as 10 mM DMSO solution, diluted and transferred by using an Echo acoustic dispenser to the 384well assay plate (Greiner #781182), pre-filled with 10 μl 1× HBSS in each well (10× HBSS (+Ca/+Mg), #14065-049, Gibco). Typically, 8 concentrations were used with the highest concentration at 10 μM in the final assay volume followed by approximately 1:4 dilution steps. DMSO concentration was set to 0.1% in the final assay volume. The 384-well assay plate contained 20 test compounds and DMSO in control and cGAMP standard wells. The dog whole blood was collected as Na-Citrate blood (e.g., 3.8% in Monovettes from Sarstedt) and kept at 4° C. overnight until use in the assay. 80 μl of the whole blood samples were transferred to each well of the 384-well assay plates filled with compound/1×HBSS. Blood plates were kept at room temperature for 60 minutes and continuous shaking with 450 rpm, covered with the lid, but not sealed. A 10× cGAMP assay solution was diluted from a 2 mM stock solution in 1×HBSS immediately before use at room temperature. 10 μl of the 10× cGAMP/HBSS were added to the high control wells, whereas HBSS only was added to all compound and low control wells. After covering assay plates with the lid, blood plates were kept for a 4 h incubation at 37° C. in the incubator, without shaking. For the detection of IFNb in dog plasma the ELISA Kit for Canine Interferon Beta (Biotrend #SEA222Ca) was used. Whole blood assay plates were centrifuged at 1000 g for 10 minutes at 8° C. 40 μl of supernatant was transferred with a 96 well pipetting robotics from the 384 well whole blood plate to the corresponding 96 well ELISA plate, pre-filled with […] assay diluent in each well. Plates were sealed with microplate seals and kept at 4° C. overnight again. ELISA plates were brought to room temperature, followed by a 1 h incubation at 37° C. in the incubator. Detection Reagent A working solution was prepared by diluting Detection Reagent A 1:100 in Assay Reagent A. Liquid was then removed from the 96 well ELISA plate to add 100 μL Detection Reagent A working solution to each well. ELISA plates were covered with the plate sealer and incubated for 1 hour at 37° C. in the incubator. The 1× Wash buffer was prepared by diluting the 30× Wash Buffer Concentrate in H2O. Detection Reagent B working solution was prepared by diluting Detection Reagent B 1:100 in Assay Reagent B. The ELISA plates were washed three times with 350 μl wash buffer and afterwards inverted and blotted against absorbent paper to remove any liquid. 100 μL of Detection Reagent B working solution was added to each well of the ELISA plates, which are then covered with the plate sealer and incubated for 30 minutes at 37° C. in the incubator. After incubation the ELISA assay plates were washed five times with 350 μl wash buffer and were again inverted and blotted against absorbent paper to remove any remaining liquid. 90 μL of TMB Substrate was added to each well of the ELISA plates, which were then covered with the plate sealer and incubated for 15 minutes at 37° C. in the incubator. The reaction was stopped by adding 50 μL stop solution and absorbance was measured at 450 nm immediately.
For data evaluation and calculation, % control calculation of each well was based on the mean of high (cGAMP stimulated control) and mean of low (unstimulated control) controls by using the following standard 4 parameter logistic regression formula: […]

| Compound | Delta TM, interaction with dog STING as determined by DSF (dDSF) (dog STING (dSTING)) [°C] | EC50 (STING) [nM] |
| --- | --- | --- |
| Cc1cccc2c(-c3cccc4nn(C)cc34)nn(-c3ccc(N4C[C@@H]5CC[C@H]4C[C@H]5C(=O)O)nc3)c12 (single isomer, unassigned) [Example 7] | 15.5 | – |
| Cc1cccc2c(-c3cccc4nn(C)cc34)nn(-c3ccc(N4C[C@H]5CC[C@@H]4C[C@@H]5C(=O)O)nc3)c12 (single isomer, unassigned) [Example 8] | 24.8 | – |
| Cc1cccc2c(-c3cccc4nn(C)cc34)nn(-c3ccc(N4C[C@@H]5CC[C@H]4C[C@@H]5C(=O)O)nc3)c12 (single isomer, unassigned) [Example 9] | 33.8 | 652 |
| Cc1cccc2c(-c3cccc4nn(C)cc34)nn(-c3ccc(N4C[C@H]5CC[C@@H]4C[C@H]5C(=O)O)nc3)c12 (single isomer, unassigned) [Example 10] | 35.8 | 185 |
| CC(=O)N1C[C@H]2CC[C@@H]1CN2c1ccc(-n2nc(-c3cccc4nn(C)cc34)c3cccc(C)c32)cn1 (single isomer, unassigned) [Example 14] | 23.8 | 2920 |
| CC(=O)N1C[C@@H]2CC[C@H]1CN2c1ccc(-n2nc(-c3cccc4nn(C)cc34)c3cccc(C)c32)cn1 (single isomer, unassigned) [Example 15] | 30.0 | 95.1 |
| Cc1cccc2c(-c3cccc4nn(C)cc34)nn(-c3ccc(N4C[C@@H]5C[C@H]4C[C@H]5C(=O)O)nc3)c12 (single isomer, unassigned) [Example 18] | 31.5 | 519 |
| Cc1cccc2c(-c3cccc4nn(C)cc34)nn(-c3ccc(N4C[C@H]5C[C@@H]4C[C@@H]5C(=O)O)nc3)c12 (single isomer, unassigned) [Example 19] | 33.5 | 278 |
| Cc1cccc2c(-c3cccc4nn(C)cc34)nn(-c3ccc(N4CC[C@H](CC(=O)O)C4)nc3)c12 [Example 1, 2-[(3R)-1-(5-{2″,7-dimethyl-1H,2″H-[3,4″-biindazol]-1-yl}pyridin-2-yl)pyrrolidin-3-yl]acetic acid] | – | 308 |
| Cc1cccc2c(-c3cccc4nn(C)cc34)nn(-c3ccc(N4CC[C@@H](CC(=O)O)C4)nc3)c12 [Example 2, 2-[(3S)-1-(5-{2″,7-dimethyl-1H,2″H-[3,4″-biindazol]-1-yl}pyridin-2-yl)pyrrolidin-3-yl]acetic acid] | 33.3 | 212 |
| Cc1cccc2c(-c3cccc4nn(C)cc34)nn(-c3ccc(N4CCOC(CC(=O)O)C4)nc3)c12 (centres unmarked) [Example 3, 2-[4-(5-{2′,7-dimethyl-1H,2′H-[3,4′-biindazol]-1-yl}pyridin-2-yl)morpholin-2-yl]acetic acid] | 26.1 | 3060 |
| Cc1cccc2c(-c3cccc4nn(C)cc34)nn(-c3ccc(N4CC5CC4CC5C(=O)O)nc3)c12 (centres unmarked) [Example 4, 2-(5-{2″,7-dimethyl-1H,2″H-[3,4″-biindazol]-1-yl}pyridin-2-yl)-2-azabicyclo[2.2.1]heptane-5-carboxylic acid] | 29.0 | 704 |
| Cc1cccc2c(-c3cccc4nn(C)cc34)nn(-c3ccc(N4CC5CCC4CC5C(=O)O)nc3)c12 (centres unmarked) [Example 6, 2-(5-{2′,7-dimethyl-1H,2′H-[3,4′-biindazol]-1-yl}pyridin-2-yl)-2-azabicyclo[2.2.2]octane-5-carboxylic acid] | 34.0 | 417 |
